Source: patent publication US20060286679A1, “Immunochromatographic method” (Mitsubishi Kagaku latron, Inc., priority 2003, published 2006)

Assays:
[1] = tested on: Human whole blood; assay: Observation on hemolysis after mixing whole blood with equal volume of detergent liquid; assay type: cell-based; note: key: Hml: Hemolyzed; Not hemolyzed; FCD: Failure in chromatographic development
Description: Deionized water, physiological saline (150 mmol/L sodium chloride liquid), and a 10 mmol/L phosphate buffer (pH 7.5, 150 mmol/L sodium chloride) were prepared.
Human whole blood (100 μL) collected using a tube containing heparin anticoagulant was mixed with an equal volume of each detergent liquid (100 μL) to prepare each sample. After 10 minutes from the mixing, hemolysis in each sample was observed visually. The “hemolysis” was judged on the basis of a transparent state caused by a solubilization of erythrocytic membrane and elution of red pigments such as hemoglobin from erythrocytes.
Total concentrations of five detergents in the four mixed liquids were 0.2, 1.0, 5.0, and 20%, respectively.

[2] = tested on: mite-specific IgE; assay: Enzyme immunochromatographic measurement of specific IgE in hemolyzed whole-blood-derived sample; design: species or system human
Description: A nitrocellulose membrane (HF180; pore size=5 to 8 μm; Millipore) was cut into a rectangular piece (5 mm×25 mm). An aqueous solution of extracted mite allergen proteins (1 mg/mL) was applied linearly with a width of 1 mm at the position of 15 mm from an end (upstream) of the membrane. In this connection, the aqueous solution was previously prepared by diluting a Dermatophagoides pteronyssinus extract (Glia) with a 5 mmol/L borate buffer (pH 8.5) and dialyzing the diluted solution.
A plastic adhesive sheet (BioDot) was cut into a rectangular piece (5 mm×60 mm). […] In this connection, adjacent pieces attached on the adhesive sheet were overlapped with each other at a width of approximately 1 mm.
Each aliquot (50 μL) of whole-blood-derived samples prepared by hemolysis and solubilization was dispensed into each well of a microplate. […]
As the above samples, sample 1 (mite-specific IgE=0 IU/mL), sample 2 (mite-specific IgE=3 IU/mL), and sample 3 (mite-specific IgE=10 IU/mL) were used. The amounts of mite-specific IgE were measured by a conventional quantitative analysis (AlaSTAT specific IgE antibody measuring kit; obtained from Iatron and manufactured by DPC, US) and shown by IU/mL, an international standard unit.

[3] = Example 1, detergent liquid 1% (final half), visual, 10 min after mixing
[4] = Example 1, detergent liquid 5% (final half), visual, 10 min after mixing
[5] = Example 1, detergent liquid 20% (final half), visual, 10 min after mixing
[6] = Example 2, detergent liquid 1% (final half)
[7] = Example 2, detergent liquid 5% (final half)
[8] = Example 2, detergent liquid 20% (final half)

Compound | Hemolysis [1, 3] | Hemolysis [1, 4] | Hemolysis [1, 5] | Hemolysis [1, 6] | Hemolysis [1, 7] | Hemolysis [1, 8] | solubilization of whole blood, immunochromatographic staining, and immunochromatographic development [2] | Hemolysis ([1]; Example 1, detergent liquid 0.2% (final half), visual, 10 min after mixing) | Hemolysis ([1]; Example 2, detergent liquid 0.2% (final half))
C[C@H](CCC(=O)NCCC[N+](C)(C)CCCS(=O)(=O)[O-])[C@H]1CC[C@H]2[C@@H]3[C@H](O)C[C@@H]4C[C@H](O)CC[C@]4(C)[C@H]3C[C@H](O)[C@]12C [CHAPS, 3-[(3-cholamido-propyl)dimethyl-ammonio]propanesulfonic acid] | Hml | Hml | Hml | Hml | Hml | Hml |  |  | 
polyethylene glycol mono-para-iso-octylphenyl ester [Triton X-100] | Hml | Hml | Hml | Hml | Hml | Hml | cannot be performed |  | 
polyoxyethylene laurylether [Emulgen 108] | Hml | Hml | Hml | Hml | Hml | Hml |  |  | 
CCCCCCCCCCCCCCCCCC[N+](C)(C)CC(=O)[O-] [Amphitol 86B, stearyl betaine] | Hml | Hml | Hml | Hml | Hml | Hml | cannot be performed |  | 
CCCCCCCCCCCCOS(=O)(=O)[O-].[Na+] [sodium dodecyl sulfate] | Hml | Hml | Hml | Hml | Hml | Hml |  | Hml | Hml
polyoxyethylene monolaurate [Tween 20] |  |  | Hml |  |  | Hml |  |  | 
